Data taken from publication PMC2715367 (Journal of medicinal chemistry, 2009).
Marks after values point to notes of the source that are not given here. Values belong to the compound of their own block, whether it stands above or below them.

How the values were obtained:
human 14DM = molecular target: T1, human 14DM (Homo sapiens, UniProt Q16850); assay: Inhibition of human 14DM; format: biochemical; details: same conditions as Tc14DM assay
T1 sequence (Q16850 1-509): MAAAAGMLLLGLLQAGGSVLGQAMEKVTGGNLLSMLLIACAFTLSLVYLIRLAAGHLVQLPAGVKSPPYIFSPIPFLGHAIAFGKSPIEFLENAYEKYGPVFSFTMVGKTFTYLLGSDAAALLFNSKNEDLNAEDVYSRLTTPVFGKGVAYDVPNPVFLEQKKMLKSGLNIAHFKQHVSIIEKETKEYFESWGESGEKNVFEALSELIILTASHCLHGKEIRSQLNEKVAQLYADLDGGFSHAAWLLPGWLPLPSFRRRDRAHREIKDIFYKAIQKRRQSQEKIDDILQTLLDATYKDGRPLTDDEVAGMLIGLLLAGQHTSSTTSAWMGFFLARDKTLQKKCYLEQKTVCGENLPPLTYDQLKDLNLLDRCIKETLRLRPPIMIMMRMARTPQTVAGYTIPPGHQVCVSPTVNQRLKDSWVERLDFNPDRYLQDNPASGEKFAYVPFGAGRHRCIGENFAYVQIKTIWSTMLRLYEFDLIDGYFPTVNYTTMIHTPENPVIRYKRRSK

rat PFT = rat PFT (Rattus norvegicus, UniProt Q02293+Q04631); assay: Rat PFT scintillation proximity assay; format: biochemical; details: for Fold increase in PFT IC50 (decrease in PFT inhibition) compared to tipifarnib: rat PFT
[1] = test system: T. cruzi trypomastigotes (Tulahuen strain); assay: Efficacy studies in T. cruzi infected mice; format: in vivo; details: for Weight loss in mice: 100 mg/kg twice per day, days 8−13; for Survival of infected mice: oral gavage for 20 days from day 8 post-infection
T. cruzi amastigotes = assay: T. cruzi growth inhibition assay; format: cell-based; details: Trypanosoma cruzi, read-out: T. cruzi amastigote EC50
[2] = test system: mammalian cytochrome P450 enzymes; details: cited from earlier work
[3] = oral; cited from earlier work
T. cruzi PFT enzyme = details: cited from earlier work
[4] = Pharmacokinetic studies in mice; details: female, BALB/c, mouse, po, 50 mg/kg
[5] = cited from earlier work
[6] = molecular target: recombinant human CYP3A4 enzyme (Homo sapiens, UniProt P08684); assay: CYP3A4 inhibition assay; format: in vitro ADME; details: in vitro
recombinant human CYP3A4 enzyme, sequence (P08684 whole entry): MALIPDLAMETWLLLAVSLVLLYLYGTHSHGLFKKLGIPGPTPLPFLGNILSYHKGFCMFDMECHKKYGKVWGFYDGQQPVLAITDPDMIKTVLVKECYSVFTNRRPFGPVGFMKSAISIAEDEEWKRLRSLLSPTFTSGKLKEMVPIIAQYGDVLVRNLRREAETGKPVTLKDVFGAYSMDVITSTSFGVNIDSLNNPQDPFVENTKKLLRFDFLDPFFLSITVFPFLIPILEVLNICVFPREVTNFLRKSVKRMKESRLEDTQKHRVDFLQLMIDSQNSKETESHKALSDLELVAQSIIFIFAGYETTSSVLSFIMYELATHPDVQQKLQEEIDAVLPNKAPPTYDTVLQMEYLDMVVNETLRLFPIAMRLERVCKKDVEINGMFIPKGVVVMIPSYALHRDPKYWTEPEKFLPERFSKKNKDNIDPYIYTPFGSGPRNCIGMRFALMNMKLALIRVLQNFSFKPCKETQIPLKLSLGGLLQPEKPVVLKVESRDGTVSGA

SMILES: Cc1cc([C@@](N)(c2ccc3c(c2)c(-c2cccc(Cl)c2)cc(=O)n3C)c2cncn2C)ccc1Cl (racemic) [Compound 2a]
Fold increase in PFT IC50 (decrease in PFT inhibition) compared to tipifarnib (rat PFT): 19 fold

SMILES: O=C(Cn1ccnc1[N+](=O)[O-])NCc1ccccc1 [Benznidazole, benznidazole]
Mice with positive parasite blood cultures ([1]; surviving mice sacrificed at day 103 post-infection): 3 of 6

SMILES: Cn1cncc1[C@@](N)(c1ccc(Cl)cc1)c1ccc2c(c1)c(-c1cccc(Cl)c1)cc(=O)n2C [Tipifarnib, tipifarnib]
EC50 (T. cruzi amastigotes): 6 nM
Inhibitory activity against mammalian cytochrome P450 enzymes [2]: very little inhibitory activity
Weight loss in mice [1]: some weight loss was observed
Survival of infected mice [1]: did not protect the mice from death
Delay in development of high parasitemia ([1]; oral gavage twice daily from day 8 post-infection): 3−4 days
Terminal half-life [3]: 16 h
Activity against isolated T. cruzi PFT enzyme (T. cruzi PFT enzyme): weak activity
Cmax ([4]; in vivo): 5 to 7 µM
half-life ([4]; in vivo): ~240 min
Dose limiting toxicities in humans [5]: bone marrow suppression
Inhibition of human 14DM (human 14DM): do not inhibit

SMILES: COC(c1ccc(Cl)cc1)(c1ccc2c(c1)c(-c1cccc(Cl)c1C)cc(=O)n2C)c1cncn1C (racemic) [Compound 2g, 4-(3-Chloro-2-methylphenyl)-6-((4-chlorophenyl)(methoxy)(1-methyl-1H-imidazol-5-yl)methyl)-1-methylquinolin-2(1H)-one]
Weight loss in mice [1]: some weight loss was observed
Survival of infected mice [1]: One mouse in the 2g group died after the end of treatment
Inhibition of CYP3A4 (in words) [6]: weak inhibition
Ratio IC50/EC50 (rat PFT; PFT IC50 / T. cruzi amastigote EC50): >7700 ^*
inhibition at 5 µM (rat PFT; read-out: PFT inhibition at highest concentration evaluated): < 50%
Cmax ([4]; plasma): 5 to 7 µM
Inhibition of human 14DM (human 14DM): do not inhibit

Other lines, results leading:

Inhibition of human 14DM (human 14DM): do not inhibit
SMILES: Cc1c(Cl)cccc1-c1cc(=O)n(C)c2ccc([C@](N)(c3ccc(Cl)cc3)c3cncn3C)cc12 (racemic) [Compound 2c]

Inhibition of human 14DM (human 14DM): do not inhibit
SMILES: Cn1cncc1[C@@](N)(c1ccc(Cl)cc1)c1ccc2c(c1)c(-c1cccc3ccccc13)cc(=O)n2C (racemic) [Compound 2f]

Fold increase in PFT IC50 (decrease in PFT inhibition) compared to tipifarnib (rat PFT): about 430 fold
SMILES: Cc1ccccc1-c1cc(=O)n(C)c2ccc([C@](N)(c3ccc(Cl)cc3)c3cncn3C)cc12 (racemic) [Compound 2d]
